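These data come from cells grown in 96-well plates and exposed to compound for 48 hours at five concentrations. Here, GI50 denotes the concentration required for 50% inhibition of growth.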 The source made the active and inactive calls. Rule as the data show it: active = GI50 up to about 1.1 µM and inactive = higher.
Experiments:
Test in all cases: growth of human tumour cells (NCI), 48 h
NCI/ADR-RES = test system: NCI/ADR-RES
Malme-3M = test system: Malme-3M
K562 = test system: K562
PC-3 = test system: PC-3
T47D = test system: T47D
EKVX = test system: EKVX
A498 = test system: A498
SF-268 = test system: SF-268
RPMI-8226 = test system: RPMI-8226
HL-60 = test system: HL-60
MOLT-4 = test system: MOLT-4
NCI-H23 = test system: NCI-H23
NCI-H226 = test system: NCI-H226
SK-MEL-28 = test system: SK-MEL-28
SN12C = test system: SN12C
SK-OV-3 = test system: SK-OV-3
A549 = test system: A549
OVCAR-4 = test system: OVCAR-4
HCT-116 = test system: HCT-116
MCF7 = test system: MCF7

SMILES	GI50 (NCI/ADR-RES)	GI50 (Malme-3M)	GI50 (K562)	GI50 (PC-3)	GI50 (T47D)	GI50 (EKVX)	GI50 (A498)	GI50 (SF-268)	GI50 (RPMI-8226)	GI50 (HL-60)	GI50 (MOLT-4)	GI50 (NCI-H23)	GI50 (NCI-H226)	GI50 (SK-MEL-28)	GI50 (SN12C)	GI50 (SK-OV-3)	GI50 (A549)	GI50 (OVCAR-4)	GI50 (HCT-116)	GI50 (MCF7)
CN1CCc2cc(N)cc3c2C1Cc1ccc(O)c(O)c1-3 (stereo unspecified)	36.8 µM (inactive)	37.8 µM (inactive)	24.9 µM (inactive)	38.2 µM (inactive)	61.8 µM (inactive)	43.6 µM (inactive)	57.7 µM (inactive)	6.43 µM (inactive)	21.8 µM (inactive)	25.8 µM (inactive)	3.92 µM (inactive)	46.8 µM (inactive)	32.7 µM (inactive)	35.6 µM (inactive)	34.5 µM (inactive)	52.7 µM (inactive)	34.2 µM (inactive)	31.6 µM (inactive)	32.2 µM (inactive)	
Fc1cc(-c2cc(-c3ccc4c(c3)OCO4)n[nH]2)c(Cl)cc1Cl	3.33 µM (inactive)	4.94 µM (inactive)	4.45 µM (inactive)	3.62 µM (inactive)	2.2 µM (inactive)	1.75 µM (inactive)		3.24 µM (inactive)	4.54 µM (inactive)	> 100 µM (inactive)	> 32.2 µM (inactive)	2.47 µM (inactive)	1.99 µM (inactive)	5.22 µM (inactive)	2.7 µM (inactive)	2.13 µM (inactive)	2.72 µM (inactive)	1.91 µM (inactive)	2 µM (inactive)	
COC(=O)C1CCOC(C)N1C(=O)OC(C)(C)C (stereo unspecified)	> 100 µM (inactive)	> 100 µM (inactive)	> 100 µM (inactive)	> 100 µM (inactive)	> 100 µM (inactive)	> 100 µM (inactive)		> 100 µM (inactive)	> 100 µM (inactive)	> 100 µM (inactive)	> 100 µM (inactive)	> 100 µM (inactive)	> 100 µM (inactive)	> 100 µM (inactive)	> 100 µM (inactive)	> 100 µM (inactive)	> 100 µM (inactive)	> 100 µM (inactive)	> 100 µM (inactive)	> 100 µM (inactive)
COc1ccccc1-c1cc(=O)c2ccccc2n1C1CC1	5.38 µM (inactive)		9.68 µM (inactive)	4.15 µM (inactive)	2.37 µM (inactive)			5.01 µM (inactive)	1.71 µM (inactive)	13.7 µM (inactive)	19.4 µM (inactive)	4.99 µM (inactive)	2.42 µM (inactive)		5.08 µM (inactive)	6.73 µM (inactive)	2.84 µM (inactive)		1.23 µM (inactive)	1.98 µM (inactive)
CCN(CC)CCCC(C)Nc1cc(/C=C/c2ccc(Cl)cc2)nc2cc(N(C)C)ccc12 (stereo unspecified)	2.19 µM (inactive)		0.272 µM (active)	1.41 µM (inactive)	1.66 µM (inactive)	1.73 µM (inactive)	1.69 µM (inactive)	1.83 µM (inactive)		1.72 µM (inactive)	1.19 µM (inactive)	1.76 µM (inactive)	3.71 µM (inactive)	1.74 µM (inactive)	1.8 µM (inactive)		2.25 µM (inactive)		1.24 µM (inactive)	1.34 µM (inactive)
CC(=O)c1[nH]c(NC(C)C)c(C(=S)Nc2ccccc2)c1N	68.5 µM (inactive)	25.7 µM (inactive)	33.4 µM (inactive)		21.4 µM (inactive)	37 µM (inactive)	18.9 µM (inactive)	25.3 µM (inactive)	0.059 µM (active)	51.6 µM (inactive)	37.2 µM (inactive)	36 µM (inactive)	21.1 µM (inactive)	32.4 µM (inactive)	27.9 µM (inactive)	65.9 µM (inactive)	32.3 µM (inactive)	30.4 µM (inactive)	24.1 µM (inactive)	19.5 µM (inactive)
N#CCCC(C=O)(CCC#N)CCC#N	> 100 µM (inactive)	> 100 µM (inactive)	> 100 µM (inactive)	> 100 µM (inactive)	> 100 µM (inactive)	> 100 µM (inactive)	> 100 µM (inactive)	> 100 µM (inactive)		> 100 µM (inactive)		> 100 µM (inactive)	> 100 µM (inactive)	> 100 µM (inactive)	> 100 µM (inactive)	> 100 µM (inactive)	> 100 µM (inactive)	> 100 µM (inactive)	> 100 µM (inactive)	> 100 µM (inactive)
BrCC[P+](c1ccccc1)(c1ccccc1)c1ccccc1	6.31 µM (inactive)		1.77 µM (inactive)	5.21 µM (inactive)	1.27 µM (inactive)	0.792 µM (active)	11.4 µM (inactive)	2.13 µM (inactive)	0.948 µM (active)	2.25 µM (inactive)	4.43 µM (inactive)			4.89 µM (inactive)	1.98 µM (inactive)	24.5 µM (inactive)	1.91 µM (inactive)	6.5 µM (inactive)	2.28 µM (inactive)	13.5 µM (inactive)
